In patent publication US20130115624A1, “Methods To Identify Modulators” (Givaudan S.A., priority 2010, published 2013):
Read-outs that look alike come from different tables or passages of the source.

Tested on: Sham Transfected HEK293T/G16gust44 cells
Experimental: HEK293T/G16gust44 cells were used; they were formed as described in WO 2004/055048. The host cell line HEK-293T is commercially available from the American Tissue Culture Collection (ATCC), ATCC®#CRL-11268.
On day 0, the HEK293T/G16gust44 cells were plated in 96-well black wall, clear-bottom plates at a density of 15,000 cells per well and grown overnight in growth media (Dulbecco's modified Eagle's medium (DMEM) with 10% (v/v) heat-inactivated fetal bovine serum, 2 mM L-glutamine, 100 units/ml penicillin, 100 μg/ml streptomycin).
On day 1, the media was changed to an antibiotic-free and serum-free DMEM, and the cells were transfected with Lipofectamine 2000 (Invitorgen) according to the manufacturer's recommendations.
Per well of a 96-well plate, 150 ng of vector DNA (TAS2R41 expression vectors from example 1) was diluted in 12.5 μl of DMEM. In a second tube, 0.3 μl of Lipofectamine 2000 was diluted in 12.5 μl of DMEM and incubated for 5 min at room temperature. After the 5 min, both solutions were mixed and incubated for 20 min at RT.
The growth medium in the plate was exchanged with 50 μl of DMEM and 25 μl of the lipofectamine/DNA mixture (formed in the step above) and the cells were incubated for a further 3-4 hours at 37° in a humidified atmosphere. This mixture was then replaced with an antibiotic-free, serum-containing DMEM.
The above procedure was also carried out for HEK293T/G16gust44 cells formed as described in WO 2004/055048 with the exception that no DNA was added during the process (these cells are termed Sham transfected cells);
Each sample (receptors as well as controls) contained a final concentration of 0.02% Dimethyl sulphoxide (DMSO) to allow for comparability of all examples below.
On day 0, the HEK293T cells formed as described in example 2, were seeded in antibiotic-free growth medium (standard DMEM with 10% (v/v) heat-inactivated fetal bovine serum, 2 mM L-glutamine […]) into black wall/clear bottom 96-well plates, coated with poly(ethylenimine) (0.005% v/v) at a concentration of 15,000 cells per well and incubated for 48 hours in humidified atmosphere (37° C., 5% CO2).
Prior to performing the assay, the growth medium was discarded and the cells were left in a humidified atmosphere (37° C., 5% CO2) for 1 hour with 50 μl of loading buffer consisting of 1.5 μM Fluo-4 AM and […] probenicid (Sigma-Aldrich, St. Louis, Mo., US) in DMEM.
Following this the 96-well plate was washed 5 times with 100 μl of assay buffer (130 mM NaCl, 5 mM KCl, 10 mM 4-(2-hydroxyethyl)-1-piperazineethanesulfonic acid (HEPES), 2 mM CaCl2, and 5 mM dextrose, pH 7.4) per well, using an automated plate washer (BioTek).
The plate was then further incubated for 30 minutes at room temperature in the dark to allow for complete de-esterification of the Fluo-4. Afterwards the plate was washed 5 times with 100 μl of assay buffer per well, and reconstituted with 100 μl of assay buffer per well.
Cyclamate solutions ranging in concentration from 250 mM to 800 mM were prepared in assay buffer.
To test receptor activation 20 μl of one of these cyclamate test solutions was added to the assay buffer of at least one well of the 96 well plate. This step was repeated until all cyclamate solutions of differing concentrations had been added to at least one well. Care was taken to ensure that only one cyclamate solution was added per well. The resulting cyclamate concentrations in the well plates ranged in concentration from 25 mM to 80 mM (This is due to the dilution of the cyclamate solution in the assay buffer present in the well).
For assay reading, the plate was placed in a Fluorometric Imaging Plate Reader (FLIPR) (FLIPR-TETRA™, Molecular Devices, Sunnyvale, Calif., US).

O=S(=O)(O)NC1CCCCC1 [Cyclamate, cyclamate]
Cyclamate Average ΔF/F0 (25 mM cyclamate in well): 0.1588 | Cyclamate Average ΔF/F0 (30 mM cyclamate in well): 0.1665 | Cyclamate Average ΔF/F0 (35 mM cyclamate in well): 0.1676 | Cyclamate Average ΔF/F0 (40 mM cyclamate in well): 0.1718 | Cyclamate Average ΔF/F0 (45 mM cyclamate in well): 0.1765 | Cyclamate Average ΔF/F0 (50 mM cyclamate in well): 0.1676 | Cyclamate Average ΔF/F0 (55 mM cyclamate in well): 0.1682 | Cyclamate Average ΔF/F0 (60 mM cyclamate in well): 0.1453 | Cyclamate Average ΔF/F0 (65 mM cyclamate in well): 0.1382 | Cyclamate Average ΔF/F0 (70 mM cyclamate in well): 0.1529 | Cyclamate Average ΔF/F0 (75 mM cyclamate in well): 0.1329 | Cyclamate Average ΔF/F0 (80 mM cyclamate in well): 0.1465
